Laboratory results: patent US20260365670A1, “EGFR INHIBITORS AND USES THEREOF” (DIZAL (JIANGSU) PHARMACEUTICAL CO., LTD., priority 2022, published 2026)
Read-outs that look alike come from different tables or passages of the source.

Tests used:
[1] = target: T1, EGFR wild type (Homo sapiens, UniProt P00533); assay: Inhibition of EGFR wild type biochemical enzymatic activity (HTRF); settings: 1 mM ATP
T1 construct: purchased Carna Bio
Summary of the method: (§1)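 Compounds at varying concentrations were tested against each EGFR form using 1 mM ATP and 1 μM TK Substrate-biotin. Reactions ran 1 h at room temperature in Mg2+/Mn2+ buffer with CHAPS, DTT and 0.5% DMSO. Time-resolved fluorescence gave IC50 by four-parameter fit.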

[2] = target: T2, EGFR L858R (Homo sapiens, UniProt P00533, L858R); assay: Inhibition of EGFR L858R biochemical enzymatic activity (HTRF); settings: 1 mM ATP
T2 construct: purchased Carna Bio
Summary of the method: as §1

[3] = target: T3, EGFR L858R/T790M (Homo sapiens, UniProt P00533, L858R/T790M); assay: Inhibition of EGFR L858R/T790M biochemical enzymatic activity (HTRF); settings: 1 mM ATP
T3 construct: purchased Carna Bio
Summary of the method: as §1

[4] = target: T4, EGFR Exon19Del (Homo sapiens, UniProt P00533, DEL746-750); assay: Inhibition of EGFR Exon19Del biochemical enzymatic activity (HTRF); settings: EGFR Exon19Del, 1 mM ATP, 1 h at room temperature, read-out: IC50 @Del19
T4 construct: purchased Carna Bio
Summary of the method: as §1

[5] = target: T5, EGFR Exon19Del/T790M (Homo sapiens, UniProt P00533, DEL746-750/T790M); assay: Inhibition of EGFR Exon19Del/T790M biochemical enzymatic activity (HTRF); settings: 1 mM ATP
T5 construct: purchased Carna Bio
T5 sequence (P00533 with tags, fused parts or gaps DEL746-750/T790M limits assumed): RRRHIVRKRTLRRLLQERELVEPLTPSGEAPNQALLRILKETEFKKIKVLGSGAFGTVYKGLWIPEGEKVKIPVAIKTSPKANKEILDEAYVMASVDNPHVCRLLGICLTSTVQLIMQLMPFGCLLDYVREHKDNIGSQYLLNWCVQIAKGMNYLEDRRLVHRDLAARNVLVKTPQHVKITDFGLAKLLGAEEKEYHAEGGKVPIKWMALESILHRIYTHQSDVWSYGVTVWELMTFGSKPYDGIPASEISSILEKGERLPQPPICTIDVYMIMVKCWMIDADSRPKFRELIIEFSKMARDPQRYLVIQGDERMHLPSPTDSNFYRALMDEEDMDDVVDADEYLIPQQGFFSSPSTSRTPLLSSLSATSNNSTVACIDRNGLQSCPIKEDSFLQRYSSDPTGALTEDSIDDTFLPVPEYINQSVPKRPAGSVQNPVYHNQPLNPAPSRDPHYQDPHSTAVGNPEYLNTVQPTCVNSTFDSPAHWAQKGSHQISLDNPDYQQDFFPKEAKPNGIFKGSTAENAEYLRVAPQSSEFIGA
Summary of the method: as §1

[6] = target: T6, EGFR[T790M/C797S/L858R] (Homo sapiens, UniProt P00533, C797S/L858R/T790M); assay: Inhibition of EGFR[T790M/C797S/L858R] biochemical enzymatic activity (HTRF); settings: 1 mM ATP
T6 construct: purchased Carna Bio
T6 sequence (P00533 25-1210 T790M/C797S/L858R): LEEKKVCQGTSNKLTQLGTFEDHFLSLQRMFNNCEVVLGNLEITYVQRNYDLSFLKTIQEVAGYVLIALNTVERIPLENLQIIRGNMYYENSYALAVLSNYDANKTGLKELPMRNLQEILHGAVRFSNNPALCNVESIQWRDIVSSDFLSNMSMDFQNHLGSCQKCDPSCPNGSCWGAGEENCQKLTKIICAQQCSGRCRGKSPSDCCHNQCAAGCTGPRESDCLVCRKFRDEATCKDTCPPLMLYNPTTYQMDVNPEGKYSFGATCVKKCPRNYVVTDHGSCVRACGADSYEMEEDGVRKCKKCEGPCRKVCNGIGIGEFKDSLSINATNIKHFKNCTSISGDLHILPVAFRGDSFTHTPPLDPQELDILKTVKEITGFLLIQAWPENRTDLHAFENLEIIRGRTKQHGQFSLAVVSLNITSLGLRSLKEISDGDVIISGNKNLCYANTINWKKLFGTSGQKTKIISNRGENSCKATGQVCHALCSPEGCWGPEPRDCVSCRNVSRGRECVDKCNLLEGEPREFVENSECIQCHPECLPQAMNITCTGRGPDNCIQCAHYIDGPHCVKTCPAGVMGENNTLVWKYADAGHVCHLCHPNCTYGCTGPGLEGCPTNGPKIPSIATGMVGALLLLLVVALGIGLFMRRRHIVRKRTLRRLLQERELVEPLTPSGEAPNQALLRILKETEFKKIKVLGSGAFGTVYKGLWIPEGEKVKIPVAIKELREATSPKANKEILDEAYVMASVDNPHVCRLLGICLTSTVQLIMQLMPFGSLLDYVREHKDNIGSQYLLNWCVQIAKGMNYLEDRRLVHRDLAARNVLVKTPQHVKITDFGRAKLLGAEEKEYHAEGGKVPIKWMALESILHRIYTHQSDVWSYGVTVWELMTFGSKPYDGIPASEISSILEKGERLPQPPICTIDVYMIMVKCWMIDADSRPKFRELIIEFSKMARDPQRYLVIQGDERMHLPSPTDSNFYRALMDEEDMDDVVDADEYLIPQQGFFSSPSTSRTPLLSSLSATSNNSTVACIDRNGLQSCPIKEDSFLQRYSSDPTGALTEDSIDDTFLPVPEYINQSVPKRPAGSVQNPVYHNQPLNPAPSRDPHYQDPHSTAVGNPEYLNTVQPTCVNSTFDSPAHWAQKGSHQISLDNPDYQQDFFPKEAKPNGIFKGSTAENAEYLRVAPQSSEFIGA
Summary of the method: as §1

[7] = target: T7, EGFR[T790M/C797S/d746-750] (Homo sapiens, UniProt P00533, C797S/DEL746-750/T790M); assay: Inhibition of EGFR[T790M/C797S/d746-750] biochemical enzymatic activity (HTRF)
T7 construct: purchased Carna Bio
T7 sequence (P00533 with tags, fused parts or gaps DEL746-750/T790M/C797S limits assumed): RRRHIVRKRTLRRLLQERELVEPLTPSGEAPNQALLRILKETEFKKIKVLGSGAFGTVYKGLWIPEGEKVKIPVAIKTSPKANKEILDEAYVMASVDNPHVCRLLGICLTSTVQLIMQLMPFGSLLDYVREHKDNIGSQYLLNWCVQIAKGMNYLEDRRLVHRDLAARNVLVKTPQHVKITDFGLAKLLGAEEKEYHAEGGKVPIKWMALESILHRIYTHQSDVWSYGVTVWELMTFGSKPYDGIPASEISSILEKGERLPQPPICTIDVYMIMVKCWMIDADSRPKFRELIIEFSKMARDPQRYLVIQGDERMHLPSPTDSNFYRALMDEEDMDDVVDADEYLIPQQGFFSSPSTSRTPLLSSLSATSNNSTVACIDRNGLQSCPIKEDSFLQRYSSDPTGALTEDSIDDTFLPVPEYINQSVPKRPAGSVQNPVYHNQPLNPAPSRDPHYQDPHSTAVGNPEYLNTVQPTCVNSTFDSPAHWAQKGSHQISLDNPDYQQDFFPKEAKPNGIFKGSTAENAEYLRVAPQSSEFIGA
Summary of the method: as §1

[8] = target: T8, EGFR (d746-750 C797S) (Homo sapiens, UniProt P00533, C797S/DEL746-750); assay: Inhibition of EGFR (d746-750 C797S) biochemical enzymatic activity (HTRF); settings: 1 mM ATP
T8 construct: purchased signalchem
Summary of the method: as §1

[9] = target: T9, EGFR (C797S L858R) (Homo sapiens, UniProt P00533, C797S/L858R); assay: Inhibition of EGFR (C797S L858R) biochemical enzymatic activity (HTRF); settings: 1 mM ATP
T9 construct: purchased signalchem
T9 sequence (P00533 25-1210 C797S/L858R): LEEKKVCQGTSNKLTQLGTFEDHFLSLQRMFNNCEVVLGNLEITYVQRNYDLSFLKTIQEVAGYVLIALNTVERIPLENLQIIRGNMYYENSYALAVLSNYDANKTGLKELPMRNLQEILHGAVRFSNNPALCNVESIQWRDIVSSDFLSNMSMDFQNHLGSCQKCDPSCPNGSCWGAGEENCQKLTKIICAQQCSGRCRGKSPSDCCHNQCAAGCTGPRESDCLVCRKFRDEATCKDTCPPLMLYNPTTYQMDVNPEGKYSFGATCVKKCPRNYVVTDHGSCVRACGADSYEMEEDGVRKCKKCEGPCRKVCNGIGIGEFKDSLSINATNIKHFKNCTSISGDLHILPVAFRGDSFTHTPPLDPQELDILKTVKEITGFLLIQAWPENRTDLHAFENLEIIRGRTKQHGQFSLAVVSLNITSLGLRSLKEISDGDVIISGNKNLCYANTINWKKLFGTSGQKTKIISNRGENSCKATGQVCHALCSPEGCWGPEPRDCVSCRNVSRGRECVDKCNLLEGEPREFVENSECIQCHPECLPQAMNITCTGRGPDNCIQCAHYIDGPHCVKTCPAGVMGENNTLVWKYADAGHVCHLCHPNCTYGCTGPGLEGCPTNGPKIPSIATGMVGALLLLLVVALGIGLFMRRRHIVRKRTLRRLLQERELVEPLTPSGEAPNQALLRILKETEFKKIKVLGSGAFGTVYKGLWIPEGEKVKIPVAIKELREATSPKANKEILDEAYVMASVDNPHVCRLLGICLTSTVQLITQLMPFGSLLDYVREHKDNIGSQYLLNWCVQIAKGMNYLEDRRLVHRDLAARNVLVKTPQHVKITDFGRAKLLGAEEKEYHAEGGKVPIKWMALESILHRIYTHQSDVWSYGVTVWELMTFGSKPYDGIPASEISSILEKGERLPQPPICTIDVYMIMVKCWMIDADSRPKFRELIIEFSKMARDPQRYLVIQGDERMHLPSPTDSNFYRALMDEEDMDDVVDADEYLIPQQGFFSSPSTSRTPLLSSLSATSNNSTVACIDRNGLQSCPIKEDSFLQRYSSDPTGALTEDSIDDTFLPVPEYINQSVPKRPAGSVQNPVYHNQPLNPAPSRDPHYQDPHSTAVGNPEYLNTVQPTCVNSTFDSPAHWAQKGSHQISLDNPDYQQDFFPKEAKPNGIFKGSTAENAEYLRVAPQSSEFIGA
Summary of the method: as §1

[10] = system: Ba/F3 cells expressing EGFR mutations; assay: Cell proliferation assay, Ba/F3 cells expressing EGFR mutations (CellTiter-Glo, 72 hours); type: cell-based
Summary of the method: (§2)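 GI50 is the concentration giving 50% proliferation inhibition. Growth for this was normalised to a baseline viability reading taken when compound was added, and to DMSO wells. PC-9 (500 cells/well) and mutant-EGFR Ba/F3 (5000 cells/well) are treated after overnight seeding in RPMI1640-based medium.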

[11] = system: PC-9; assay: Cell proliferation assay, PC-9 cells (CellTiter-Glo, 72 hours); type: cell-based; settings: PC9 cells, read-out: GI50 PC9
Summary of the method: as §2

[12] = system: A-431; assay: Cell proliferation assay, A-431 cells (GI50, Table 6); type: cell-based
Procedure: [Worded in the source for another cell line; this cell line is reported under the same test.] Ba/F3 cells expressing EGFR mutations were seeded in 384-well plates at 5000 cells/well in RPMI1640 medium containing […]. PC-9 at 500 cells/well was seeded into 384-well plates in RPMI1640 medium with 10% FBS. After overnight incubation, the assay plates were dosed with compounds at a series of concentrations. Alongside dosing the assay plates, the day 0 plate was processed using CellTiter-Glo® Luminescent Cell Viability Assay (Promega) to measure the number of viable cells (G0). The assay plates were further incubated for 72 hours and the number of viable cells (G3) was measured. The percentage of proliferation was calculated as: […]=100×(G3 value of sample well−G0 value)/(G3 value of DMSO control−G0 value). The concentration of compound producing 50% proliferation inhibition (GI50) was further calculated in best-fit curves using XLFit software. N/A=not available.

[13] = EGFR wild type, 1 h at room temperature, read-out: IC50 @WT
[14] = 1 h at room temperature, read-out: IC50 @L858R
[15] = EGFR L858R/T790M, 1 h at room temperature, read-out: IC50 @L858R-T790M
[16] = EGFR Exon19Del/T790M, 1 h at room temperature, read-out: IC50 @Del19-T790M
[17] = EGFR[T790M/C797S/L858R], 1 h at room temperature, read-out: IC50 @T790M- C797S - L858R
[18] = EGFR[T790M/C797S/d746-750], 1 mM ATP, 1 h at room temperature, read-out: IC50 @T790M - C797S - Del19
[19] = EGFR (d746-750 C797S), 1 h at room temperature, read-out: IC50 @Del19-C797S
[20] = EGFR (C797S L858R), 1 h at room temperature, read-out: IC50 @L858-C797S
[21] = BaF3 cells, EGFR DEL19 - C797S, read-out: GI50 DEL19 - C797S/BaF3
[22] = BaF3 cells, EGFR DEL19 - T790-C797S, read-out: GI50 DEL19 - T790-C797S/BaF3
[23] = BaF3 cells, EGFR L858R - C797S, read-out: GI50 L858R - C797S/BaF3
[24] = BaF3 cells, EGFR L858R - T790-C797S, read-out: GI50 L858R - T790-C797S/BaF3
[25] = BaF3 cells, EGFR L858R - T790M, read-out: GI50 L858R - T790M/BaF3
[26] = BaF3 cells, EGFR L858R, read-out: GI50 L858R/BaF3
[27] = EGFR DEL19 - T790M, read-out: GI50 DEL19 - T790M
[28] = Mus musculus, BaF3, 72 h, BaF3 cells, EGFR DEL19 - C797S, read-out: GI50 DEL19 - C797S/BaF3
[29] = Mus musculus, BaF3, 72 h, BaF3 cells, EGFR DEL19 - T790-C797S, read-out: GI50 DEL19 - T790-C797S/BaF3
[30] = Mus musculus, BaF3, 72 h, BaF3 cells, EGFR L858R - C797S, read-out: GI50 L858R - C797S/BaF3
[31] = Mus musculus, BaF3, 72 h, BaF3 cells, EGFR L858R - T790-C797S, read-out: GI50 L858R - T790-C797S/BaF3
[32] = Mus musculus, BaF3, 72 h, BaF3 cells, EGFR L858R - T790M, read-out: GI50 L858R - T790M/BaF3
[33] = Mus musculus, BaF3, 72 h, BaF3 cells, EGFR L858R, read-out: GI50 L858R/BaF3
[34] = Mus musculus, BaF3, 72 h, EGFR DEL19 - T790M, read-out: GI50 DEL19 - T790M
[35] = Homo sapiens, A-431, A-431 cells

T1 sequence (P00533 25-1210): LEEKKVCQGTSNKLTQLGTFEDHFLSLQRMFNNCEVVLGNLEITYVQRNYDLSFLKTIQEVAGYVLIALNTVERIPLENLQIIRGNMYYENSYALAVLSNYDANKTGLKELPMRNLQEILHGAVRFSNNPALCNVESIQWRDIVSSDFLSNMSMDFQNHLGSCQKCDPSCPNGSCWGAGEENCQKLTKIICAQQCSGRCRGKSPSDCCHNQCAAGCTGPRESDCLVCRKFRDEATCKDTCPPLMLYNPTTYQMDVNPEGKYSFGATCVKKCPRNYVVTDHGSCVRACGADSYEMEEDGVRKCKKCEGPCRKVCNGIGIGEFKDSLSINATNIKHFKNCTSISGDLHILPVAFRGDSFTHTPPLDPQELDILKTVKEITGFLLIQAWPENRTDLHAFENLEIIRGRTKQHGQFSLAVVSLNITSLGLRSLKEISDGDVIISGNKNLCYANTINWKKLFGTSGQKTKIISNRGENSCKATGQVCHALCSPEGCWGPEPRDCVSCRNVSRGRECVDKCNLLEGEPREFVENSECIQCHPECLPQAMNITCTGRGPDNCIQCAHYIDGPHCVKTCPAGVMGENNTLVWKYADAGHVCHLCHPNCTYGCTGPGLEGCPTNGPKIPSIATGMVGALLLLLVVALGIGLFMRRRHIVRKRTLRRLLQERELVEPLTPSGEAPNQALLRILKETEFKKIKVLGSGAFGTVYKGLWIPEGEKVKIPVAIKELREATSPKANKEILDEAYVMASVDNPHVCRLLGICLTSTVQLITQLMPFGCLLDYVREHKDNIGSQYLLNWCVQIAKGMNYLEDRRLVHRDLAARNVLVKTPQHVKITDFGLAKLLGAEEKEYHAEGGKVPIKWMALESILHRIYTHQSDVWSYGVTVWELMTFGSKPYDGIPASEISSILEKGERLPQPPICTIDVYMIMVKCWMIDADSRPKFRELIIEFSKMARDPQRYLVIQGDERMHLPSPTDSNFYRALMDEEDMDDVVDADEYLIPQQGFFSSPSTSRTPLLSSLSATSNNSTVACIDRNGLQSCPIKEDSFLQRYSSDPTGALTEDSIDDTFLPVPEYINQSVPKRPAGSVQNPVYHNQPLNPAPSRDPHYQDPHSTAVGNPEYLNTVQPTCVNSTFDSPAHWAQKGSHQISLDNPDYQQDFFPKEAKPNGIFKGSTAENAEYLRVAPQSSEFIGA

SMILES | IC50 [1, 13] | IC50 [2, 14] | IC50 [3, 15] | IC50 [4] | IC50 [5, 16] | IC50 [6, 17] | IC50 [7, 18] | IC50 [8, 19] | IC50 [9, 20] | GI50 [10, 21] | GI50 [10, 22] | GI50 [10, 28] | GI50 [10, 29] | GI50 [10, 30] | GI50 [10, 31] | GI50 [10, 32] | GI50 [10, 33] | GI50 [10, 34] | GI50 ([11]; Homo sapiens, PC-9, 72 h) | GI50 [12, 35] | further results
Cc1cc2cc(n1)-c1cnn(C)c1OCCN1CC3CCC(C3)(C1)n1c(nc3ccc(N4CCOCC4)cc31)NC2=O (single isomer, unassigned) [Example B10B, 15,21-Dimethyl-5-(morpholin-4-yl)-23-oxa-2,9,11,16,20,21,26-heptaazaheptacyclo[24.4.1.1^{1,28}.1^{13,17}.0^{2,10}.0^{3,8}.0^{18,22}]tritriaconta-3,5,7,9,13,15,17(33),18(22),19-nonaen-12-one] | > 5000 nM | > 5000 nM | > 5000 nM | 1080 nM | > 5000 nM | > 5000 nM | 4040 nM | 1430 nM | > 5000 nM | 403 nM | 516 nM | – | – | – | – | – | – | – | – | – | GI50 [10, 23]: 1580 nM; GI50 [10, 24]: 595 nM; GI50 [10, 25]: 539 nM; GI50 [10, 26]: 2910 nM; GI50 [10, 27]: 765 nM; GI50 [11]: 2620 nM; GI50 ([12]; A-431 cells): 5520 nM
Cc1cc2cc(n1)-c1cnn(C)c1OCCN1CC3CCC(CC3)(C1)n1c(nc3ccc(N4CCC5(CCN(C)CC5)C4)cc31)NC2=O [Example B31] | – | 244 nM | 20 nM | 19 nM | 11 nM | 8.2 nM | 7.3 nM | 15 nM | 113 nM | – | – | 24 nM | 10 nM | 127 nM | 19 nM | 38 nM | 81 nM | 10 nM | 103 nM | 1680 nM | –
CN1CCN(c2cc3c(cc2F)nc2n3C34CCC(CC3)CN(CCOc3c(cnn3C)-c3cc(cn(C)c3=O)C(=O)N2)C4)CC1 [Example A115, 6-fluoro-15,21-dimethyl-5-(4-methylpiperazin-1-yl)-23-oxa-2,9,11,15,20,21,26-heptaazaheptacyclo[26.2.2.1^{1,26}.1^{13,17}.0^{2,10}.0^{3,8}.0^{18,22}]tetratriaconta-3,5,7,9,13,17(34),18(22),19-octaene-12,16-dione] | – | – | – | – | – | – | – | – | – | – | – | 7.6 nM | 52 nM | 61 nM | 68 nM | 133 nM | 20 nM | 18 nM | 94 nM | 3040 nM | IC50 ([1]; EGFR WT, 1 h, room temperature, read-out: IC50 (nM) @WT): > 5000 nM; IC50 ([2]; 1 h, room temperature, read-out: IC50 (nM) @L858R): 233 nM; IC50 ([3]; EGFR L858R-T790M, 1 h, room temperature, read-out: IC50 (nM) @L858R-T790M): 325 nM; IC50 ([5]; EGFR Del19-T790M, 1 h, room temperature, read-out: IC50 (nM) @Del19-T790M): 12 nM; IC50 ([6]; EGFR T790M-C797S-L858R, 1 h, room temperature, read-out: IC50 (nM) @T790M- C797S - L858R): 50 nM; IC50 ([7]; EGFR T790M-C797S-Del19, 1 mM ATP, 1 h, room temperature, read-out: IC50 (nM) @T790M - C797S - Del19): 6.6 nM; IC50 ([8]; EGFR Del19-C797S, 1 h, room temperature, read-out: IC50 (nM) @Del19-C797S): 9.2 nM; IC50 ([9]; EGFR L858-C797S, 1 h, room temperature, read-out: IC50 (nM) @L858-C797S): 112 nM

Further lines, with some results ahead:

IC50 [1, 13] | IC50 [2, 14] | IC50 [3, 15] | IC50 [4] | IC50 [5, 16] | IC50 [6, 17] | IC50 [7, 18] | IC50 [8, 19] | IC50 [9, 20] | GI50 [10, 21] | GI50 [10, 22] | GI50 [10, 28] | GI50 [10, 29] | GI50 [10, 30] | GI50 [10, 31] | GI50 [10, 32] | GI50 [10, 33] | GI50 [10, 34] | GI50 ([11]; Homo sapiens, PC-9, 72 h) | GI50 [12, 35] | SMILES | further results
> 5000 nM | 194 nM | 13 nM | 19 nM | 9 nM | 5.6 nM | 3.9 nM | 13 nM | 99 nM | – | – | 12 nM | 5 nM | 73 nM | 9 nM | 28 nM | 74 nM | 5 nM | 106 nM | 5040 nM | Cc1cc2cc(n1)-c1cnn(C)c1OCCN1CC3CCC(CC3)(C1)n1c(nc3ccc(N4CCC5(CN(C)C5)C4)cc31)NC2=O [Example B37] | –
> 5000 nM | > 5000 nM | > 5000 nM | > 5000 nM | 100 nM | > 5000 nM | 37 nM | 2050 nM | > 5000 nM | 102 nM | 169 nM | – | – | – | – | – | – | – | – | – | Cc1cc2cc(n1)-c1cnn(C)c1OCCN1CC3CCC(C3)(C1)n1c(nc3ccc(N4CCC5(CCN(C)C5)CC4)cc31)NC2=O (single isomer, unassigned) [Example B52A] | GI50 [10, 23]: 180 nM; GI50 [10, 24]: 41 nM; GI50 [10, 25]: 191 nM; GI50 [10, 26]: 176 nM; GI50 [10, 27]: 363 nM; GI50 [11]: 311 nM; GI50 ([12]; A-431 cells): 7020 nM
